Activity calls are given as the source filed them. The rule behind the calls is not given here.
Test: DPPH radical scavenging activity at 10 ug after 30 mins by TLC
Assay type: functional

Structure (SMILES)	Activity
CC/C=C/CCCCCCCCCCCCCc1cccc(O)c1	Active
CC/C=C/CCCCCCCCCCCCCCC[C@@]1(O)CC(=O)C=C[C@@H]1O	inactive
CC/C=C/CCCCCCCCCCCCC[C@@]1(O)CC(=O)C=C[C@@H]1O	inactive
CC/C=C/CCCCCCCCCCCCCCC[C@]1(O)CC(=O)C=C[C@@H]1O	inactive

From ChEMBL document CHEMBL1150689, “New dihydroalkylhexenones from Lannea edulis” (J Nat Prod, 2003)
